# Data from patent publication US20240287173A1, “THERAPEUTIC AGENT FOR MUSCULAR ATROPHY” (NATIONAL UNIVERSITY CORPORATION KUMAMOTO UNIVERSITY, priority 2021, published 2024).
# Key:
# [1] = test system: wild-type mouse DB model; assay: STZ-induced diabetes (DB) muscle atrophy model; assay type: in vivo; conditions: DAPT 10 mg/kg i.p. every other day during DB induced period
# Experimental: (§1) Wild-type mice were used to examine the effects of inhibition of the Notch signaling pathway on muscle in vitro. Ultra-LEAF™ anti-mouse Dll4 antibody (Dll4 blocking antibody) or Ultra-LEAF™ American hamster IgG control antibody (control antibody) was administered intraperitoneally (10 mg/kg body weight) every 4 days in each experiment. Recombinant Dll4-Fc chimeric protein (rDll4) was dissolved in phosphate-buffered saline (PBS) and administered (0.5 mg/kg body weight) every two days. The γ-secretase inhibitor, DAPT, dissolved in 10% ethanol and corn oil, was administered every 2 days (10 mg/kg body weight). […]
# Mice were given a single intraperitoneal injection of STZ (150 mg/kg body weight) at a level that is toxic to insulin-producing pancreatic β-cells, or an equal volume of solvent (0.1 M citrate buffer, pH 4.5) as a control was injected. Mice were monitored for hyperglycemia on day 3 using Accu-chek (Roche), and only mice that achieved casual blood glucose levels>300 mg/dl were used in the experiment. […]
# (§2) Total RNA was extracted from muscle tissue, isolated myofibers, cultured cells, and freshly sorted cells using ISOGEN II and RNeasy Kit (Qiagen) according to the manufacturer's instructions. […] Quantitative PCR (qPCR) was performed using THUNDERBIRD SYBR qPCR mix (TOYOBO) and real-time PCR detection system (CFX96; Bio Rad). […]
# [2] = test system: wild-type mouse HU model; assay: Hindlimb unloading (HU) muscle atrophy model; assay type: in vivo; conditions: DAPT 10 mg/kg i.p. every other day during HU period
# Experimental: as §1, §2
# (§3) Isolated PLA or TA muscles were immediately frozen in liquid nitrogen-cooled 2-methylbutane and stored at −80° C. until analysis. […] Immunostained specimens were visualized using Alexa Fluor conjugated secondary antibodies and observed using fluorescence microscopy. Image-J (NIH) was used to quantify myofiber CSA from at least 500 myofibers and count the number of satellite cells per myofiber from at least 15 myofibers.
# [3] = test system: EDL myofibers derived from N2f/f mice; assay: Dll4-induced myofiber atrophy on recombinant Dll4-coated plates with γ-secretase inhibitor; assay type: cell-based, mouse; conditions: DAPT 10 μM, 48 hours, recombinant Dll4-coated plate
# Experimental: Culture dishes were coated with Notch ligand recombinant protein as reported by Sakai et al. (Sakai et al., PLOS One 12, e0177516 (2017)). Culture dishes were first coated with 10 μg/ml anti-Fc antibody for 1 hour at room temperature, followed by Matrigel (Corning) for 20 minutes. Fc antibody coated dishes were incubated with 5 ng/μl of Fc fusion protein of each Notch ligand (Dll1, Dll4, Jag1 and Jag2) for 1 hour at room temperature. Individual myofibers isolated from EDL muscle were placed in serum-free DMEM and cultured in a CO2 incubator for 48 hours. DAPT (10 µM) was used to inhibit γ-secretase activity in myofibers.
# Cultured myofibers were captured using fluorescence microscopy and diameters were quantified from at least 15 individual myofibers using ImageJ (NIH).
# Notch, which is a transmembrane receptor, has its transmembrane domain cleaved by γ-secretase, translocates its intracellular domain to the nucleus, and functions as a transcription factor. Therefore, DAPT, a γ-secretase inhibitor, was used to test the influence of γ-secretase activity on Dll4-induced myofiber atrophy. EDL myofibers derived from N2^f/f mice were cultured for 48 hours on a plate coated previously with recombinant Dll4 protein using a medium containing a γ-secretase inhibitor DAPT (10 μM) or PBS.
# [4] = test system: wild-type mouse mechanical load-induced muscle hypertrophy model; assay: Mechanical overload (tenotomy)-induced muscle hypertrophy model; assay type: in vivo; conditions: DAPT 10 mg/kg i.p. after tenotomy, day 14, vs control mice
# Experimental: Wild-type mice were used to examine the effects of inhibition of the Notch signaling pathway on muscle in vitro. Ultra-LEAF™ anti-mouse Dll4 antibody (Dll4 blocking antibody) or Ultra-LEAF™ American hamster IgG control antibody (control antibody) was administered intraperitoneally (10 mg/kg body weight) every 4 days in each experiment. Recombinant Dll4-Fc chimeric protein (rDll4) was dissolved in phosphate-buffered saline (PBS) and administered (0.5 mg/kg body weight) every two days. The γ-secretase inhibitor, DAPT, dissolved in 10% ethanol and corn oil, was administered every 2 days (10 mg/kg body weight). Control mice were injected intraperitoneally with an equivalent volume of vehicle in rDll4 or DAPT experiments.
# Tenotomy surgery was performed on both legs of mice to induce muscle hypertrophy. In anesthetized mice, an incision was made along the midline of the calf after hair removal. […]
# as §3
smiles,measurement,setting,value
C[C@H](NC(=O)Cc1cc(F)cc(F)c1)C(=O)N[C@H](C(=O)OC(C)(C)C)c1ccccc1 [DAPT],muscle atrophy (muscle mass),[1],significant suppression of muscle atrophy
same,"muscle atrophy (muscle mass of SOL, PLA, GAS)",[2],significant suppression of muscle atrophy
same,myofiber atrophy on Dll4 stimulation (myofiber diameter),[3],resistant to Dll4 stimulation
same,muscle hypertrophy (overload-induced PLA muscle weight gain),[4],muscle hypertrophy was exhibited more readily
